Values of other authors as cited in patent publication US12221461B2, “Saponin adjuvant and evaluation method thereof” (OBI PHARMA, INC., priority 2018, dated 2025).

Tested on: antibody levels
Details: previous study, Kensil et al., J. Immunol. 146, 431-437, 1991

Substance	boost of antibody levels (adjuvant effect)
QS-17	able to dramatically boost antibody levels
QS-18	able to dramatically boost antibody levels
QS-21	able to dramatically boost antibody levels
